Source: ChEMBL document CHEMBL3991601, “The target landscape of clinical kinase drugs” (Science, 2017)
Calls of active or inactive are those of the source. For most assays here, no stated cut-off is given here; in the data, actives have a measured Kd and inactives only a lower limit.

How the values were obtained:
[1] = biological target: T1, NUAK family SNF1-like kinase 2 (Homo sapiens, UniProt Q9H093)
T1 sequence (Q9H093 whole entry): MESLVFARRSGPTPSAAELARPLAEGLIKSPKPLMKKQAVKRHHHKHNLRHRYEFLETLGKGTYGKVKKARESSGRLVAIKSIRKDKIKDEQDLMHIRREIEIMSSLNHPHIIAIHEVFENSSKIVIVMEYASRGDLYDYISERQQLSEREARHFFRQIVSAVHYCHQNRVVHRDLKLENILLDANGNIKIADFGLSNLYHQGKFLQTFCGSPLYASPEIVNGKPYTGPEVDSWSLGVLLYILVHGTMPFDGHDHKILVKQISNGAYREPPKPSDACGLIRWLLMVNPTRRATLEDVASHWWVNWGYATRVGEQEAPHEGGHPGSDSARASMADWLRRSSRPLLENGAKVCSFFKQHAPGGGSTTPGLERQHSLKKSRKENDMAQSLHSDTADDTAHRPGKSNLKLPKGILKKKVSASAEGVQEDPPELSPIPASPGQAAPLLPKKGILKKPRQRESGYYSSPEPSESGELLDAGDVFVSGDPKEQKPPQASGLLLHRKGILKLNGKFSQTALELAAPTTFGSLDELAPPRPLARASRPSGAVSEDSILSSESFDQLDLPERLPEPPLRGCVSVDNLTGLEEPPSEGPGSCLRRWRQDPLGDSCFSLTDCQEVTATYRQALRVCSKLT

[2] = biological target: Ribosomal protein S6 kinase alpha-6 (Homo sapiens, UniProt Q9UK32)
Sequence of Ribosomal protein S6 kinase alpha-6 (Q9UK32 whole entry): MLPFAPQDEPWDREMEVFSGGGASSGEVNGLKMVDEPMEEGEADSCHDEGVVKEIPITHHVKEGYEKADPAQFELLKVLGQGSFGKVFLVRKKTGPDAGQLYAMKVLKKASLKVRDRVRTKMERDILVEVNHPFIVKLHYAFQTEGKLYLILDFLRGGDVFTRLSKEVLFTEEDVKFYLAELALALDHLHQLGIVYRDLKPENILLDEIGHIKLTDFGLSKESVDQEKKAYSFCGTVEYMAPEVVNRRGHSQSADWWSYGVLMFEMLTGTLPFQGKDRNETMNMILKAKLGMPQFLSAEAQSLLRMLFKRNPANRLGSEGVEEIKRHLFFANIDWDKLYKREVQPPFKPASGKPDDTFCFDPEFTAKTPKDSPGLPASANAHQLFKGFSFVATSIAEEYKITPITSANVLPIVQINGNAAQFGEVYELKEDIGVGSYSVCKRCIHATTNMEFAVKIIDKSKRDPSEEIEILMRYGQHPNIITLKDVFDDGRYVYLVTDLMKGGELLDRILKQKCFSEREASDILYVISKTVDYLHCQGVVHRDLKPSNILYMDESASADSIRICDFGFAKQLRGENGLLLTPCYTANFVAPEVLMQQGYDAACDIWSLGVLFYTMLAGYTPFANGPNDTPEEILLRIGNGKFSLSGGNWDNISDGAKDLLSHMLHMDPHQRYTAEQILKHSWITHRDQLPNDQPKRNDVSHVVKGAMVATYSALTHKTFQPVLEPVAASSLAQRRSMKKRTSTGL

[3] = biological target: Guanine nucleotide-binding protein G(i) subunit alpha-2 (Homo sapiens, UniProt P04899)
Sequence of Guanine nucleotide-binding protein G(i) subunit alpha-2 (P04899 whole entry): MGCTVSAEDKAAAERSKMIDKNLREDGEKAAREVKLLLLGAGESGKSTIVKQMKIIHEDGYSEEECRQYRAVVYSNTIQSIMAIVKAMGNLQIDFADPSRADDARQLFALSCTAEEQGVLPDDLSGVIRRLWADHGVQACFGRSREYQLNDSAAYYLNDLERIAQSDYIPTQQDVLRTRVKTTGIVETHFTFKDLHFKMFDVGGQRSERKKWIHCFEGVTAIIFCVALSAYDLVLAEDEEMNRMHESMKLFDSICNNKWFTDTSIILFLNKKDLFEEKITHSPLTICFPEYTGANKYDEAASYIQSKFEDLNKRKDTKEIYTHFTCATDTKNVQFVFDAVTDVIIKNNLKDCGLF

[4] = biological target: T2, Mitogen-activated protein kinase kinase kinase kinase 3 (Homo sapiens, UniProt Q8IVH8)
T2 sequence (Q8IVH8 whole entry): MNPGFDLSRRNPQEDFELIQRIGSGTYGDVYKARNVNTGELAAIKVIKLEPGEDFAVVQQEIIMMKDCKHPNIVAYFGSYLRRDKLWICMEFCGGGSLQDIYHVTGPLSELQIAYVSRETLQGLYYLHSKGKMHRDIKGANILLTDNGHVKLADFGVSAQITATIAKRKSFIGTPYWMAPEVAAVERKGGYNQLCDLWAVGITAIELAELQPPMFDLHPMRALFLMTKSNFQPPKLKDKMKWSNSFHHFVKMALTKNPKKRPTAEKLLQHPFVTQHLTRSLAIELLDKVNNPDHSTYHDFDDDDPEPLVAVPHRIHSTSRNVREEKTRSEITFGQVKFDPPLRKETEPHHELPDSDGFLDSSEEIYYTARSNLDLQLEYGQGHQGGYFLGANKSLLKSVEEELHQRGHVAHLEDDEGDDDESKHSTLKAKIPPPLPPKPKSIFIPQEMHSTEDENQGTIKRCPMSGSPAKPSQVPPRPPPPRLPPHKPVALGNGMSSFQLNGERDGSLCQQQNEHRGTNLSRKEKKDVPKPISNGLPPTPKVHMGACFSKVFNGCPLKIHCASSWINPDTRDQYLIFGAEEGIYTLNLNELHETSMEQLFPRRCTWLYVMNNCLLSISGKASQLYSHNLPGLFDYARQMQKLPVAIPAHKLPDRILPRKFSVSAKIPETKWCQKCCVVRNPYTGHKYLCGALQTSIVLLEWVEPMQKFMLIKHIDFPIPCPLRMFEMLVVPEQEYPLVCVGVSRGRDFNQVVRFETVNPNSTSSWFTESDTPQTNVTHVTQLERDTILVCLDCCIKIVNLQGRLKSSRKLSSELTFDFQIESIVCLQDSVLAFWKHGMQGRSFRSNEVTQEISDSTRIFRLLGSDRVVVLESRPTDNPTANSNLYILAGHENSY

[5] = biological target: T3, Serine/threonine-protein kinase Nek3 (Homo sapiens, UniProt P51956)
T3 sequence (P51956 whole entry): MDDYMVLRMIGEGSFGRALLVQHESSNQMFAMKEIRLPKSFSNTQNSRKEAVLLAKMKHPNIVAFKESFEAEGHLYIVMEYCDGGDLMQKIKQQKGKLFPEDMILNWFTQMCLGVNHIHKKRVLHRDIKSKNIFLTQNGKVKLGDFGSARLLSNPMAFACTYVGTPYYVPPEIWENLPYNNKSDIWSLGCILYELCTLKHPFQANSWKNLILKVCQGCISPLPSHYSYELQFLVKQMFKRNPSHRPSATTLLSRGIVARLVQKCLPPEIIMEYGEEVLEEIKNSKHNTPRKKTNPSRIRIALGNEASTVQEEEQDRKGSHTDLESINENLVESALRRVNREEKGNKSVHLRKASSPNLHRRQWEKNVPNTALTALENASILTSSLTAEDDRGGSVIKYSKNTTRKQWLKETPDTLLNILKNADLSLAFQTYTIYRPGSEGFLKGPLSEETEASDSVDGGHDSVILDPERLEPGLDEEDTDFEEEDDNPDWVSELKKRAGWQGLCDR

[6] = biological target: T4, Serine/threonine-protein kinase ICK (Homo sapiens, UniProt Q9UPZ9)
T4 sequence (Q9UPZ9 whole entry): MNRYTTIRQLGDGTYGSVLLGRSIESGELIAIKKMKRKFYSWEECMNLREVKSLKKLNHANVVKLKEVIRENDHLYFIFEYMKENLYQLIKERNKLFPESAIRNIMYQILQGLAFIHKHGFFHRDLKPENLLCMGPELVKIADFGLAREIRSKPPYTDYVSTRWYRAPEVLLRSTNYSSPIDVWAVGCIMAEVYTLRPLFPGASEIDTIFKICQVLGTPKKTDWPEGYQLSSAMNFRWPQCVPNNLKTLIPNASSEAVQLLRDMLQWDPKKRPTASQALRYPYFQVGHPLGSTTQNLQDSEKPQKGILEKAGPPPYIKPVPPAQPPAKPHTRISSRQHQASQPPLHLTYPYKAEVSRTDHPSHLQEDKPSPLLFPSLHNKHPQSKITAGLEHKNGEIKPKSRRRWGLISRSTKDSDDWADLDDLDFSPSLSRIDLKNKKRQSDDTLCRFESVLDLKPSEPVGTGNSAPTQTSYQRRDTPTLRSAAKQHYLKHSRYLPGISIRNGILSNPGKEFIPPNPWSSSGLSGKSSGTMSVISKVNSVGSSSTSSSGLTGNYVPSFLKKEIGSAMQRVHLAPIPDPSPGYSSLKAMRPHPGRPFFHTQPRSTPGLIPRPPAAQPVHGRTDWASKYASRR

Ephrin type-A receptor 4 = Ephrin type-A receptor 4 (Homo sapiens, UniProt P54764)
Sequence of Ephrin type-A receptor 4 (P54764 whole entry): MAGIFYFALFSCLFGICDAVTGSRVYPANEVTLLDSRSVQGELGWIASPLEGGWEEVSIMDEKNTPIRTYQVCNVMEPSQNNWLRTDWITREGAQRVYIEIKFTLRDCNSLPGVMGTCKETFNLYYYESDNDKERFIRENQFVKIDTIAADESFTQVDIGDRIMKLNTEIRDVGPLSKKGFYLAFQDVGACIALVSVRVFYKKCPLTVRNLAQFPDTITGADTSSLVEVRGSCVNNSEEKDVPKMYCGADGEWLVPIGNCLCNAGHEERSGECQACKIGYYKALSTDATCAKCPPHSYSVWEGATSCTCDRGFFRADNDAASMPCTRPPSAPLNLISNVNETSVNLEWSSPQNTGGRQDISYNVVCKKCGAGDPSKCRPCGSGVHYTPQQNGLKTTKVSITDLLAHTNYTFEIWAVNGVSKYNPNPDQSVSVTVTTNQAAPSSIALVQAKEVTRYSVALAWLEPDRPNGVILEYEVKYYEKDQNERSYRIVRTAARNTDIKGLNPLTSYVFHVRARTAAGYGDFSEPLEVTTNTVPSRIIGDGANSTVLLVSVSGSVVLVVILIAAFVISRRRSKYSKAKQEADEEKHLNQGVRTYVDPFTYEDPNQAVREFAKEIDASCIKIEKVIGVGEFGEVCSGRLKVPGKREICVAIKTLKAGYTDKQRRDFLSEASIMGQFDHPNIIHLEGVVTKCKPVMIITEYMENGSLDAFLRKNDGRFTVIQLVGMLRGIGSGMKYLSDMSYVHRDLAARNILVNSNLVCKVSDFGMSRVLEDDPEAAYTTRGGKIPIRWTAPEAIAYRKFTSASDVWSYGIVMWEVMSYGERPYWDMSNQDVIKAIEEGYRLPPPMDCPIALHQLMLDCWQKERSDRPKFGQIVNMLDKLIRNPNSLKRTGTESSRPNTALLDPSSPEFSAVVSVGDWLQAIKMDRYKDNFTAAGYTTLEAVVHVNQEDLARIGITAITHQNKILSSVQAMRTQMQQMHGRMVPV

[7] = biological target: Tyrosine-protein kinase Fer (Homo sapiens, UniProt P16591)
Sequence of Tyrosine-protein kinase Fer (P16591 whole entry): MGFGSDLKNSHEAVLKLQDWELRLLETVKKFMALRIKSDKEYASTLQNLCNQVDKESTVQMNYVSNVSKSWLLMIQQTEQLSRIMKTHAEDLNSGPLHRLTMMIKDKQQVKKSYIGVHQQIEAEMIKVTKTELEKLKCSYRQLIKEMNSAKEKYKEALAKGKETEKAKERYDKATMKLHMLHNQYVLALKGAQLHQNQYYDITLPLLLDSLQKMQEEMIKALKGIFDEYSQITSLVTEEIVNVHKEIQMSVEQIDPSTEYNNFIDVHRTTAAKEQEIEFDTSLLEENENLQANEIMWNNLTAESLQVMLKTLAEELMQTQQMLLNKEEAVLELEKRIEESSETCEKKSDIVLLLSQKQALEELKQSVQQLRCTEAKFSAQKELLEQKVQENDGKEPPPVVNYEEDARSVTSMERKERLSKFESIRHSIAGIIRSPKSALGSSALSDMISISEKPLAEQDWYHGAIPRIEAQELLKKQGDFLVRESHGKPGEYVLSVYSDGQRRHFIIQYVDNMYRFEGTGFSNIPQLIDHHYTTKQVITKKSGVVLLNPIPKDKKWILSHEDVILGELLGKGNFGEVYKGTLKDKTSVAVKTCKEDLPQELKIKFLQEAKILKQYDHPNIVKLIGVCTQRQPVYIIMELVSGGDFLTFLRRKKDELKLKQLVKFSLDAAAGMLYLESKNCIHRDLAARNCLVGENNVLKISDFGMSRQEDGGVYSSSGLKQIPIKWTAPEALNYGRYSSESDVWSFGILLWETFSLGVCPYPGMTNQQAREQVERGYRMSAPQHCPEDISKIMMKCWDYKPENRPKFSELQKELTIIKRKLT

SMILES | Kd [1] | Kd [2] | Kd [4] | Kd [5] | Kd [6] | Kd (Ephrin type-A receptor 4) | Kd [7] | Kd [3]
Cn1cc(-c2[nH]c3cc(NC(=O)[C@H](N)C4CCCCC4)cc4c3c2C=NNC4=O)cn1 | > 30 µM (inactive) | 2.38 µM (active) | 1.54 µM (active) | > 30 µM (inactive) | > 30 µM (inactive) | > 30 µM (inactive) | > 30 µM (inactive) | > 30 µM (inactive)
C=CCn1c(=O)c2cnc(Nc3ccc(N4CCN(C)CC4)cc3)nc2n1-c1cccc(C(C)(C)O)n1 [ADAVOSERTIB] | > 30 µM (inactive) | > 30 µM (inactive) | > 30 µM (inactive) | 0.837 µM (active) | > 30 µM (inactive) | > 30 µM (inactive) | > 30 µM (inactive) | > 30 µM (inactive)
CCc1cc2c(cc1N1CCC(N3CCOCC3)CC1)C(C)(C)c1[nH]c3cc(C#N)ccc3c1C2=O [ALECTINIB] | > 30 µM (inactive) | > 30 µM (inactive) | > 30 µM (inactive) | > 30 µM (inactive) | > 30 µM (inactive) | > 30 µM (inactive) | 3.76 µM (active) | > 30 µM (inactive)
COc1ccc2c(OCc3nnc4ccc(-c5ccccc5)nn34)ccnc2c1 [AMG-208] |  | > 30 µM (inactive) | > 30 µM (inactive) | > 30 µM (inactive) | > 30 µM (inactive) | > 30 µM (inactive) | > 30 µM (inactive) | > 30 µM (inactive)
CCc1nc(C(N)=O)c(Nc2ccc(N3CCC(N4CCN(C)CC4)CC3)c(OC)c2)nc1NC1CCOCC1 [GILTERITINIB] | > 30 µM (inactive) | > 30 µM (inactive) |  | 2.84 µM (active) | > 30 µM (inactive) | > 30 µM (inactive) |  | > 30 µM (inactive)
C[C@]1(O)C[C@@H](c2nc(-c3ccc4ccc(-c5ccccc5)nc4c3)c3c(N)nccn32)C1 [LINSITINIB] | > 30 µM (inactive) | > 30 µM (inactive) | 15.4 µM (active) | > 30 µM (inactive) | > 30 µM (inactive) | > 30 µM (inactive) |  | > 30 µM (inactive)
CN(c1ncccc1CNc1nc(Nc2ccc3c(c2)CC(=O)N3)ncc1C(F)(F)F)S(C)(=O)=O [PF-00562271] | > 30 µM (inactive) | > 30 µM (inactive) | > 30 µM (inactive) | > 30 µM (inactive) | > 30 µM (inactive) | > 30 µM (inactive) |  | > 30 µM (inactive)
CC(C)CC(=O)Nc1[nH]nc2c1CN(C(=O)C1CCN(C)CC1)C2(C)C [PHA-793887] | > 30 µM (inactive) | > 30 µM (inactive) | > 30 µM (inactive) | > 30 µM (inactive) | > 30 µM (inactive) | > 30 µM (inactive) |  | > 30 µM (inactive)
O=C(O)c1ccc2c(c1)nc(Nc1cccc(Cl)c1)c1ccncc12 [SILMITASERTIB] | > 30 µM (inactive) | 3.42 µM (active) | > 30 µM (inactive) | > 30 µM (inactive) | 0.884 µM (active) | > 30 µM (inactive) | > 30 µM (inactive) | 
CN1CCN(c2nc(C3=C(c4c[nH]c5ccccc45)C(=O)NC3=O)c3ccccc3n2)CC1 [SOTRASTAURIN] | > 30 µM (inactive) |  | > 30 µM (inactive) | > 30 µM (inactive) | 6.69 µM | > 30 µM (inactive) | > 30 µM (inactive) | > 30 µM (inactive)
Cc1cc(-c2cc(OC(=O)c3ccccc3)ccc2Cl)cc2nnc(Nc3ccc(OCCN4CCCC4)cc3)nc12 [TG100-801] |  | > 30 µM (inactive) | > 30 µM (inactive) | > 30 µM (inactive) | > 30 µM (inactive) | 1.93 µM | > 30 µM (inactive) | > 30 µM (inactive)
C[C@@H]1COC(Nc2ccc3ncnc(Nc4ccc(OCc5nccs5)c(Cl)c4)c3c2)=N1 [VARLITINIB] | > 30 µM (inactive) | > 30 µM (inactive) | > 30 µM (inactive) | > 30 µM (inactive) | > 30 µM (inactive) | > 30 µM (inactive) | > 30 µM (inactive) | 

Now from value to molecule, other results behind:

Kd [1] | Kd [2] | Kd [4] | Kd [5] | Kd [6] | Kd (Ephrin type-A receptor 4) | Kd [7] | SMILES | Kd [3]
> 30 µM (inactive) | > 30 µM (inactive) | > 30 µM (inactive) | > 30 µM (inactive) | 0.053 µM (active) | > 30 µM (inactive) | > 30 µM (inactive) | CCN1CCN(Cc2ccc(Nc3ncc(F)c(-c4cc(F)c5nc(C)n(C(C)C)c5c4)n3)nc2)CC1 [ABEMACICLIB] | > 30 µM (inactive)
> 30 µM (inactive) | > 30 µM (inactive) | > 30 µM (inactive) | > 30 µM (inactive) | > 30 µM (inactive) | > 30 µM (inactive) | > 30 µM (inactive) | Cc1ccc(C(=O)Nc2ccc(Oc3cc4cnn(C)c4cc3-c3cn[nH]c3)c(F)c2)c(=O)n1-c1ccc(F)cc1 [MERESTINIB] | 
> 30 µM (inactive) | > 30 µM (inactive) | > 30 µM (inactive) | > 30 µM (inactive) | > 30 µM (inactive) | > 30 µM (inactive) | > 30 µM (inactive) | O=C(NOC[C@H](O)CO)c1ccc(F)c(F)c1Nc1ccc(I)cc1F [MIRDAMETINIB] | 
> 30 µM (inactive) | > 30 µM (inactive) | > 30 µM (inactive) | > 30 µM (inactive) | > 30 µM (inactive) | > 30 µM (inactive) | > 30 µM (inactive) | Cn1c(=O)c(F)c(Nc2ccc(I)cc2F)c2c(=O)n(C[C@@H](O)CO)cnc21 [TAK-733] | 
> 30 µM (inactive) | > 30 µM (inactive) | > 30 µM (inactive) | > 30 µM (inactive) | > 30 µM (inactive) | > 30 µM (inactive) | > 30 µM (inactive) | CNC(=O)c1cc(COc2nnc(Nc3ccc(Cl)cc3)c3ccoc23)ccn1 [TELATINIB] | 
> 30 µM (inactive) | 5.9 µM (active) | > 30 µM (inactive) | > 30 µM (inactive) | > 30 µM (inactive) | > 30 µM (inactive) | > 30 µM (inactive) | COc1cc2ncnc(Nc3ccc(O)cc3)c2cc1OC [WHI-P131] | 
